Assay [1] deals with T1, rat B1R (bradykinin receptor 1) (Rattus norvegicus, UniProt P97583).
T1 construct: expressed in transfected cells; host or cells: CHO K1 cells
T1 sequence (P97583 1-337): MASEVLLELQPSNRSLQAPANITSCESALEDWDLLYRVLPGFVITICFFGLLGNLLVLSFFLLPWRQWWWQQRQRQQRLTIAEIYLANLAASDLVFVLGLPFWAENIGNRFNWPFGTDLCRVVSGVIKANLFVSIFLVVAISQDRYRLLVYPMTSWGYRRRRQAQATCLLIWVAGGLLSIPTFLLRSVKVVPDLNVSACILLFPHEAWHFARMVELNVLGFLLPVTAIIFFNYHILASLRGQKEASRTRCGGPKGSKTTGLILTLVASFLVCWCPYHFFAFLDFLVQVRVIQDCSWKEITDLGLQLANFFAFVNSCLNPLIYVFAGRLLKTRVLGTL
Put plainly: FLIPR Ca2+ assay (Fluo-4) on CHO K1 cells stably transfected with the B1R gene of the rat (rB1R cells): % inhibition at 10 μM / IC50, agonist Des-Arg9-bradykinin. Format: cell-based. As to conditions: for inhibition at 10 µM: CHO-K1, rat B1R. In a few lines:
(§1)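 Stable CHO K1 lines, Fluo-4 dye, probenecid-containing buffer. Cpd 10 μM or dose range, 10–20 min, then EC80 agonist (h: Lys-Des-Arg9-BK; r: Des-Arg9-BK). Readout peak FC; % inhibition vs max; IC50 from n=2–3, N≥2.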

In assay [2] the target is T2, human B1R (bradykinin receptor 1) (Homo sapiens, UniProt P46663).
T2 construct: expressed in transfected cells; host or cells: CHO K1 cells
T2 sequence (P46663 1-353): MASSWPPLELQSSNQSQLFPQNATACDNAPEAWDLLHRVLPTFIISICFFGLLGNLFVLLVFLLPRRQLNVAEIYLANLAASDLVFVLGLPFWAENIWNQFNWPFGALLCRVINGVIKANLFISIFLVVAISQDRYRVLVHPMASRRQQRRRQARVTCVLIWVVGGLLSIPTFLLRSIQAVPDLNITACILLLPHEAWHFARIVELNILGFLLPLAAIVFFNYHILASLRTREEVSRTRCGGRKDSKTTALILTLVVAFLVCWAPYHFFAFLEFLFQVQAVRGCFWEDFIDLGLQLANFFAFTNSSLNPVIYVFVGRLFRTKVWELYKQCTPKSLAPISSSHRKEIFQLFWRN
As to the kind of experiment: FLIPR Ca2+ assay (Fluo-4) on CHO K1 cells stably transfected with the human B1R gene (hB1R cells): % inhibition at 10 μM / IC50, agonist Lys-Des-Arg9-bradykinin. It counts as cell-based. The settings on record: for inhibition at 10 µM: CHO-K1, human B1R. A digest of the protocol: as §1

Molecules are shown by their SMILES. Structures can show the parent of a compound that is named as a salt.

As usually defined, the inhibition is the drop in the measured response relative to a control, in per cent.

For the compound `COc1cc(C)c(S(=O)(=O)N[C@H]2CCCc3ccc(C(=O)N4CCC5(CCN(c6ccncc6)CC5)C4)cc32)c(C)c1` [Example H-18, 4-methoxy-2,6-dimethyl-N-[(1S)-7-(8-pyridin-4-yl-3,8-diazaspiro[4.5]decane-3-carbonyl)-1,2,3,4-tetrahydro-naphthalen-1-yl]-benzenesulfonic acid amide], the figures for the inhibition at 10 µM in assay [1] and in assay [2] were 104% and 96%, respectively.
For `O=C(Nc1ccc(Cl)c(Cl)c1)NC1CCc2ccc(C(=O)N3CCC4(CCN(c5ccncc5)CC4)C3)cc21` (centres unmarked) [Ind_CC-085], in assay [1], the “% Inhibition (rat B1R) at 10 μM” value was found to be 77%. The “% Inhibition (human B1R) at 10 μM” value in assay [2] worked out at 91%.
As to `CC1(C)CC(NC(=O)C(c2ccccc2)c2ccccc2Cl)c2cc(C(=O)N3CCC4(CC3)CCN(c3ccncc3)CC4)ccc21` (centres unmarked) [Ind_CC-056, 2-(2-chlorophenyl)-N-[3,3-dimethyl-6-(9-pyridin-4-yl-3,9-diazaspiro[5.5]-undecane-3-carbonyl)-1,2-dihydro-inden-1-yl]-2-phenyl-acetamide], the values for the inhibition at 10 µM in assay [1] and in assay [2] were 94% and 41%, respectively.
On to `O=C(N[C@@H]1CCc2ccc(C(=O)N3CCC4(CCCN(c5ccncc5)C4)CC3)cc21)c1ccccc1Cl` [Example H-26, 2-chloro-N-[(1R)-6-(8-pyridin-4-yl-3,8-diazaspiro[5.5]undecane-3-carbonyl)-2,3-dihydro-1H-inden-1-yl]-benzamide], for which the inhibition at 10 µM worked out at 101% in assay [1] and 46% in assay [2].
`O=C(c1cccc2c1CC[C@@H]2N1Cc2cccc(Cl)c2C1=O)N1CCC2(CCN(c3ccncc3)CC2)C1` [Example H-168, 7-Chloro-2-[(1S)-4-(8-pyridin-4-yl-3,8-diazaspiro[4.5]decane-3-carbonyl)-2,3-dihydro-1H-inden-1-yl]-2,3-dihydro-isoindol-1-one]: the inhibition at 10 µM was found to be 55% in assay [1] and 96% in assay [2].
Turning to `Cc1cccc(C)c1C(=O)NC1CCc2ccc(C(=O)N3CCC4(CC3)CCN(c3ccc(C(F)(F)F)cc3)CC4)cc21` (centres unmarked) [IND_CC-307, 2,6-Dimethyl-N-[6-[9-[4-(trifluoromethyl)-phenyl]-3,9-diazaspiro[5.5]undecane-3-carbonyl]-2,3-dihydro-1H-inden-1-yl]-benzamide], the values for the inhibition at 10 µM in assay [1] and in assay [2] were 103% and 14%, respectively.
On to `CC1(C)Cc2ccc(C(=O)N3CCC4(CCN(c5ccncc5)CC4)C3)cc2C1NC(=O)c1ccccc1Cl` (centres unmarked) [Example H-47, 2-chloro-N-[2,2-dimethyl-6-(8-pyridin-4-yl-3,8-diazaspiro[4.5]decane-3-carbonyl)-1,3-dihydro-inden-1-yl]-benzamide], for which the inhibition at 10 µM in assay [1] turned out to be 101%; in assay [2] it was 99%.
In the case of `O=C(NC1CCc2ccc(C(=O)N3CCC4(CC3)CCN(c3ccncc3)CC4)cc21)c1ccc(Cl)cc1Cl` (centres unmarked) [Ind_CC-006, 2,4-dichloro-N-[6-(9-pyridin-4-yl-3,9-diazaspiro[5.5]undecane-3-carbonyl)-2,3-dihydro-1H-inden-1-yl]-benzamide], the inhibition at 10 µM in assay [1] and in assay [2] was 98% throughout.
On to `CN1CCC(N2CCC3(CCN(C(=O)c4ccc5c(c4)[C@H](NC(=O)c4ccccc4Cl)CC5)CC3)CC2)CC1` [Example H-28, 2-chloro-N-[(1R)-6-[9-(1-methyl-piperidin-4-yl)-3,9-diazaspiro[5.5]undecane-3-carobnyl]-2,3-dihydro-1H-inden-1-yl]-benzamide], for which the inhibition at 10 µM in assay [1] came to 102%; in assay [2], 57%.
`COc1cc(C)c(S(=O)(=O)NC2CCc3ccc(C(=O)N4CCC5(CC4)CCN(c4ccncc4)C5)cc32)c(C)c1` (centres unmarked) [Ind_CC-050, 4-methoxy-2,6-dimethyl-N-[6-(2-pyridin-4-yl-2,8-diazaspiro[4.5]decane-8-carbonyl)-2,3-dihydro-1H-inden-1-yl]-benzenesulfonic acid amide]: the figures for the inhibition at 10 µM in assay [1] and in assay [2] were 93% and 100%, respectively.
As for `O=C(NC1CCc2ccc(C(=O)N3CCC4(CCN(c5ccncc5)CC4)C3)cc21)c1ccccc1Cl` (centres unmarked) [IND_CC-293, 2-Chloro-N-[6-(8-pyridin-4-yl-2,8-diazaspiro[4.5]decane-2-carbonyl)-2,3-dihydro-1H-inden-1-yl]-benzamide], the “% Inhibition (rat B1R) at 10 μM” value in assay [1] (10 µM) is 106%. In addition, the “% Inhibition (human B1R) at 10 μM” value in assay [2] is 100%.
`O=C(NCc1ccccc1Cl)NC1CCc2ccc(C(=O)N3CCC4(CCN(c5ccncc5)CC4)C3)cc21` (centres unmarked) [Ind_CC-086, 1-[(2-chlorophenyl)-methyl]-3-[6-(8-pyridin-4-yl-2,8-diazaspiro[4.5]decane-2-carbonyl)-2,3-dihydro-1H-inden-1-yl]-urea]: the values for the inhibition at 10 µM in assay [1] and in assay [2] were 99% and 100%, respectively.
As to `O=C(c1ccc2c(c1)C(NS(=O)(=O)Cc1ccccc1C(F)(F)F)CC2)N1CCC2(CC1)CCN(c1ccncc1)CC2` (centres unmarked) [IND_CC-236, N-[6-(9-Pyridin-4-yl-3,9-diazaspiro[5.5]undecane-3-carbonyl)-2,3-dihydro-1H-inden-1-yl]-1-[2-(trifluoromethyl)-phenyl]-methanesulfonic acid amide], the values for the inhibition at 10 µM in assay [1] and in assay [2] were 96% and 98%, respectively.
On to `Cc1cc(N2CCC3(CCN(C(=O)c4ccc5c(c4)[C@H](NC(=O)c4ccccc4Cl)CC5)C3)CC2)cc(C)n1` [Example H-111, 2-Chloro-N-[(1R)-6-[8-(2,6-dimethyl-pyridin-4-yl)-3,8-diazaspiro[4.5]decane-3-carbonyl]-2,3-dihydro-1H-inden-1-yl]-benzamide hydrochloride], for which the inhibition at 10 µM in assay [1] amounted to 102%; in assay [2] it was 100%.
As to `O=C(NC1CCc2ccc(C(=O)N3CCC4(CC3)CCN(c3ccncc3)C4)cc21)c1ccccc1Cl` (centres unmarked) [Ind_CC-101, 2-chloro-N-[6-(2-pyridin-4-yl-2,8-diazaspiro[4.5]decane-8-carbonyl)-2,3-dihydro-1H-inden-1-yl]-benzamide], the inhibition at 10 µM in assay [1] worked out at 102%; in assay [2], 100%.
As for `O=C(N[C@@H]1CCc2ccc(C(=O)N3CCC4(CCN(c5ccncc5)CC4)C3)cc21)c1cc(F)ccc1Cl` [Example H-141, 2-Chloro-5-fluoro-N-[(1R)-6-(8-pyridin-4-yl-3,8-diazaspiro[4.5]decane-3-carbonyl)-2,3-dihydro-1H-inden-1-yl]-benzamide], the inhibition at 10 µM in assay [1] amounted to 101%; in assay [2] it was 99%.
Turning to `COc1ccc(S(=O)(=O)N[C@@H]2CCc3ccc(C(=O)N4CCC5(CCN(c6ccncc6)CC5)C4)cc32)c(C)c1` [Example H-147, 4-Methoxy-2-methyl-N-[(1R)-6-(8-pyridin-4-yl-3,8-diazaspiro[4.5]decane-3-carbonyl)-2,3-dihydro-1H-inden-1-yl]-benzenesulfonic acid amide], the values for the inhibition at 10 µM in assay [1] and in assay [2] were 104% and 100%, respectively.
With `O=C(NC1CCc2ccc(C(=O)N3CCC4(CCN(c5cc[n+]([O-])cc5)CC4)C3)cc21)c1ccccc1Cl` (centres unmarked) [Example H-129, 2-Chloro-N-[6-[8-(1-oxido-pyridin-1-ium-4-yl)-3,8-diazaspiro[4.5]decane-3-carbonyl]-2,3-dihydro-1H-inden-1-yl]-benzamide], the results for the inhibition at 10 µM in assay [1] and in assay [2] were 102% and 100%, respectively.
With `Cc1ccc(F)c(C(=O)NC2CCc3ccc(C(=O)N4CCC5(CC4)CCN(c4ccncc4)C5)cc32)c1Cl` (centres unmarked) [IND_CC-215, 2-Chloro-6-fluoro-3-methyl-N-[6-(2-pyridin-4-yl-2,8-diazaspiro[4.5]decane-8-carbonyl)-2,3-dihydro-1H-inden-1-yl]-benzamide], the values for the inhibition at 10 µM in assay [1] and in assay [2] were 103% and 48%, respectively.
For the compound `O=C(c1ccc2c(c1)[C@H](NS(=O)(=O)c1ccccc1C(F)(F)F)CC2)N1CCC2(CCN(c3ccncc3)CC2)C1` [Example H-118, N-[(1R)-6-(8-Pyridin-4-yl-3,8-diazaspiro[4.5]decane-3-carbonyl)-2,3-dihydro-1H-inden-1-yl]-2-(trifluoromethyl)-benzenesulfonic acid amide], the inhibition at 10 µM is 101% in assay [1] and 100% in assay [2].
As to `O=C(N[C@@H]1CCc2ccc(C(=O)N3CCC4(CCC(C(=O)N5CCn6ncnc6C5)CC4)CC3)cc21)c1ccccc1Cl` [Example H-97, 2-Chloro-N-[(1R)-6-[9-(5,6,7,8-tetrahydro-[1,2,4]triazolo[1,5-a]pyrazine-7-carbonyl)-3-azaspiro[5.5]undecane-3-carbonyl]-2,3-dihydro-1H-inden-1-yl]-benzamide], the inhibition at 10 µM in assay [1] is 90%; in assay [2], 6%.
Taken in the same sequence, the figures for `O=C(N[C@H]1CCc2ccc(C(=O)N3CCC4(CCN(c5ccncc5)CC4)C3)cc21)c1ccccc1Cl` [Example H-20, 2-chloro-N-[(1S)-6-(8-pyridin-4-yl-3,8-diazaspiro[4.5]decane-3-carbonyl)-2,3-dihydro-1H-indecn-1-yl]-benzamide] were 105% and 100%.

Source of the values: US8455475B2 (Gruenenthal GmbH, priority 2009, dated 2013).
